ChEMBL document CHEMBL6096702, “Discovery of a Novel p38α-MK2 Complex Inhibitor as a Potential Choice for Autoimmune Diseases” (J Med Chem, 2025)
pIC50: −log10 of the molar value.

Legend:
[1] = Inhibition of N-terminal GST-tagged wildtype human P38alpha (4 to 152 residues) extracted from Escherichia coli/GST-tagged MK2 (unknown origin) assessed as reduction in HSP27 phosphorylation incubated for 2 hrs in presence of ATP and HSP27-FITC peptide by fluorescence polarization based IMAP assay
[2] = Selectivity ratio of IC50 for inhibition of N-terminal GST-tagged wildtype human P38alpha (4 to 152 residues) extracted from Escherichia coli/GST-tagged PRAK (unknown origin) to IC50 for inhibition of N-terminal GST-tagged wildtype human P38alpha (4 to 152 residues) extracted from Escherichia coli/GST-tagged MK2 (unknown origin)
[3] = Inhibition of N-terminal GST-tagged wildtype human P38alpha (4 to 152 residues) extracted from Escherichia coli/GST-tagged PRAK (unknown origin) assessed as reduction in HSP27 phosphorylation incubated for 2 hrs in presence of ATP and HSP27-FITC peptide by fluorescence polarization based IMAP assay
[4] = MRT in male Sprague-Dawley rat at 1 mg/kg, iv measured after 24 hrs by LC-MS/MS analysis; type: ADME, organism-based; details: in vivo
[5] = Volume of distribution at steady state in male Sprague-Dawley rat at 1 mg/kg, iv measured after 24 hrs by LC-MS/MS analysis; type: ADME, organism-based; details: in vivo, read-out: Vdss
[6] = AUClast in male Sprague-Dawley rat at 1 mg/kg, iv measured after 24 hrs by LC-MS/MS analysis; type: ADME, organism-based; details: in vivo
[7] = Cmax in male Sprague-Dawley rat at 2 mg/kg, po measured after 24 hrs by LC-MS/MS analysis; type: ADME, organism-based; details: in vivo
[8] = AUClast in male Sprague-Dawley rat at 2 mg/kg, po measured after 24 hrs by LC-MS/MS analysis; type: ADME, organism-based; details: in vivo
[9] = Clearance in male Sprague-Dawley rat at 1 mg/kg, iv measured after 24 hrs by LC-MS/MS analysis; type: ADME, organism-based; details: in vivo
[10] = Oral bioavailability in male Sprague-Dawley rat at 2 mg/kg measured after 24 hrs by LC-MS/MS analysis; type: ADME, organism-based; details: in vivo
[11] = Half-life in male Sprague-Dawley rat at 1 mg/kg, iv measured after 24 hrs by LC-MS/MS analysis; type: ADME, organism-based; details: in vivo

Cc1ccc(-c2ccnc(C(C)(C)O)n2)cc1-n1c(C)cc(OCc2ncc(F)cc2F)c(Cl)c1=O
pIC50 [1]: 8.44 | Ratio IC50 [2]: 805 | pIC50 [3]: 5.54

Cc1cnc(-c2cc(C(C)(C)O)ccc2Cl)c(F)c1-n1c(C)cc(OCc2ncc(F)cc2F)c(Cl)c1=O
pIC50 [1]: 7.72

COc1c(O[C@@H](C)c2ncc(F)cc2F)cc(C)n(-c2c(C)cnc(-c3ccnc(C(C)(C)O)n3)c2F)c1=O
pIC50 [1]: 7.59

Cc1cnc(-c2ccnc(C(C)(C)O)n2)cc1-n1c(C)cc(COc2ncc(F)cc2F)c(Cl)c1=O
pIC50 [1]: 5.81

Cc1cnc(-c2ccnc(C(C)(C)O)n2)cc1-n1c(C)cc(O[C@@H](C)c2ncc(F)cc2F)c(Cl)c1=O
pIC50 [1]: < 6.00

Cc1cnc(-c2cccc(C(C)(C)O)c2C)c(F)c1-n1c(C)cc(OCc2ncc(F)cc2F)c(Cl)c1=O
pIC50 [1]: 7.17

Cc1cnc(-c2ccnc(C(C)(C)O)n2)cc1-c1c(C)c(Cl)c(OCc2ncc(F)cc2F)c[n+]1[O-]
pIC50 [1]: < 5.00

C=C(C)c1c(O[C@@H](C)c2ncc(F)cc2F)cc(C)n(-c2c(C)cnc(-c3ccnc(C(C)(C)O)n3)c2F)c1=O
pIC50 [1]: < 6.00

Cc1cnc(-c2ccnc(C(C)(C)O)n2)cc1-c1c(C)cc(OCc2ncc(F)cc2F)c[n+]1[O-]
pIC50 [1]: < 5.00

Cc1cnc(-c2ccnc(C(C)(C)O)n2)cc1-c1c(C)cc(OCc2ncc(F)cc2F)c(Cl)c1F
pIC50 [1]: < 5.00

Cc1cnc(-c2cc(C(C)(C)O)ccc2F)c(F)c1-n1c(C)cc(OCc2ncc(F)cc2F)c(Cl)c1=O
pIC50 [1]: 7.76 | Ratio IC50 [2]: 0.2 | pIC50 [3]: 8.54

Cc1cnc(-c2ccnc(C(C)(C)O)n2)c(F)c1-n1c(C)cc(O[C@@H](C)c2ncc(F)cc2F)c(C(C)C)c1=O
pIC50 [1]: 7.04

Cc1cnc(-c2cccc(C(C)(C)O)c2F)cc1-n1c(C)cc(O[C@@H](C)c2ncc(F)cc2F)c(Cl)c1=O
pIC50 [1]: 8.80 | Ratio IC50 [2]: 315 | pIC50 [3]: 6.30

Cc1cnc(-c2cccc(C(C)(C)O)c2F)cc1-n1c(C)cc(O[C@@H](C)c2ncc(F)cc2F)c(C)c1=O
pIC50 [1]: 7.81

Cc1cnc(-c2cccc(C(C)(C)O)c2Cl)c(F)c1-n1c(C)cc(OCc2ncc(F)cc2F)c(Cl)c1=O
pIC50 [1]: 8.22

Cc1cnc(-c2ccnc(C(C)(C)O)n2)cc1-n1c(C)cc(SCc2ncc(F)cc2F)c(Cl)c1=O
pIC50 [1]: 7.65

Cc1cnc(-c2cccc(C(C)(C)O)n2)cc1-n1c(C)cc(OCc2ncc(F)cc2F)c(Cl)c1=O
pIC50 [1]: 8.52 | Ratio IC50 [2]: 333 | pIC50 [3]: 6.00

Cc1cnc(-c2ccnc(C(C)(C)O)n2)cc1N1CCC(OCc2ncc(F)cc2F)CC1=O (configuration not stated)
pIC50 [1]: < 5.00

C=Cc1c(O[C@@H](C)c2ncc(F)cc2F)cc(C)n(-c2c(C)cnc(-c3ccnc(C(C)(C)O)n3)c2F)c1=O
pIC50 [1]: 7.47

Cc1cnc(-c2cccc(C(C)(C)O)c2F)c(C)c1-n1c(C)cc(O[C@@H](C)c2ncc(F)cc2F)c(Cl)c1=O
pIC50 [1]: 7.89 | Ratio IC50 [2]: 109 | pIC50 [3]: 5.85

Cc1cnc(-c2ccnc(C(C)(C)O)n2)c(F)c1-n1c(C)cc(O[C@@H](C)c2ncc(F)cc2F)c(C2CC2)c1=O
pIC50 [1]: 7.49

Cc1cnc(-c2ccnc(C(C)(C)O)n2)cc1-n1ncc(OCc2ncc(F)cc2F)c(Cl)c1=O
pIC50 [1]: 5.94

Cc1cnc(-c2ccnc(C(C)(C)O)n2)nc1-n1c(C)cc(OCc2ncc(F)cc2F)c(Cl)c1=O
pIC50 [1]: < 5.00

Cc1cnc(-c2cc(C(C)(C)O)ccc2F)c(F)c1-n1c(C)cc(O[C@@H](C)c2ncc(F)cc2F)c(Cl)c1=O
pIC50 [1]: 7.21

CCc1c(O[C@@H](C)c2ncc(F)cc2F)cc(C)n(-c2c(C)cnc(-c3ccnc(C(C)(C)O)n3)c2F)c1=O
pIC50 [1]: 8.40

Cc1cnc(-c2ccnc(C(C)(C)O)n2)c(F)c1-n1c(C)cc(O[C@@H](C)c2ncc(F)cc2F)c(C=O)c1=O
pIC50 [1]: 6.84

Cc1ccc(C(C)(C)O)cc1-c1ncc(C)c(-n2c(C)cc(OCc3ncc(F)cc3F)c(Cl)c2=O)c1F
pIC50 [1]: 7.21

Cc1nn(-c2ccnc(C(C)(C)O)n2)cc1-n1c(C)cc(OCc2ncc(F)cc2F)c(Cl)c1=O
pIC50 [1]: 5.88

Cc1cnc(-c2ccnc(C(C)(C)O)n2)c(F)c1-n1c(C)cc(O[C@@H](C)c2ncc(F)cc2F)c(C(F)F)c1=O
pIC50 [1]: 6.95

Cc1cnc(-c2cccc(C(C)(C)O)c2F)c(F)c1-n1c(C)cc(O[C@@H](C)c2ncc(F)cc2F)c(Cl)c1=O
pIC50 [1]: 9.15 | Ratio IC50 [2]: 33 | pIC50 [3]: 7.64

Cc1cnc(-c2cccc(C(C)(C)O)c2)cc1-n1c(C)cc(OCc2ncc(F)cc2F)c(Cl)c1=O
pIC50 [1]: 8.28 | Ratio IC50 [2]: 368 | pIC50 [3]: 5.71

Cc1cnc(-c2ccnc(C(C)(C)O)n2)c(F)c1-n1c(C)cc(OCc2ncc(F)cc2F)c(C)c1=O
MRT [4]: 1.1 h | pIC50 [1]: 8.40 | Vd [5]: 0.9 L/kg | AUC(0-t) at 24 h [6]: 1170 ng·h/mL | Cmax [7]: 496 ng/mL | AUC(0-t) at 24 h [8]: 1310 ng·h/mL | clearance [9]: 13.9 mL/min/kg | Ratio IC50 [2]: 1330 | pIC50 [3]: 5.27 | bioavailability [10]: 56% | half-life [11]: 0.9 h

Cc1cnc(-c2cccc(C(C)(C)O)c2F)c(F)c1-n1c(C)cc(O[C@@H](C)c2ncc(F)cc2F)c(C)c1=O
pIC50 [1]: 8.80 | Ratio IC50 [2]: 246 | pIC50 [3]: 6.40

Cc1cnc(-c2ccnc(C(C)(C)O)n2)cc1-c1c(C)cc(OCc2ncc(F)cc2F)c(Cl)[n+]1[O-]
pIC50 [1]: 7.08

Cc1cnc(-c2ccnc(C(C)(C)O)n2)cc1-c1c(F)cc(OCc2ncc(F)cc2F)c(Cl)c1C
pIC50 [1]: < 5.00

Cc1cc(OCc2ncc(F)cc2F)c(Cl)c(=O)n1C1=CCCN(c2ccnc(C(C)(C)O)n2)C1
pIC50 [1]: < 5.00

Cc1cnc(-c2ccnc(C(C)(C)O)n2)cc1-n1c(C)cc(Oc2ncc(F)cc2F)c(Cl)c1=O
pIC50 [1]: < 5.00

Cc1cnc(-c2ccnc(C(C)(C)O)n2)cc1-n1c(C)cc(OCc2ncc(F)cc2F)c(C)c1=O
pIC50 [1]: 7.06

Cc1cnc(-c2cccc(C(C)(C)O)c2)c(F)c1-n1c(C)cc(O[C@@H](C)c2ncc(F)cc2F)c(Cl)c1=O
MRT [4]: 3 h | pIC50 [1]: 8.72 | Vd [5]: 0.9 L/kg | AUC(0-t) at 24 h [6]: 3230 ng·h/mL | Cmax [7]: 1030 ng/mL | AUC(0-t) at 24 h [8]: 8050 ng·h/mL | clearance [9]: 5 mL/min/kg | Ratio IC50 [2]: 1990 | pIC50 [3]: 5.42 | bioavailability [10]: 125% | half-life [11]: 2.2 h

Cc1cnc(-c2cccc(C(C)(C)O)c2)c(F)c1-n1c(C)cc(OCc2ncc(F)cc2F)c(Cl)c1=O
MRT [4]: 1.2 h | pIC50 [1]: 9.30 | Vd [5]: 0.7 L/kg | AUC(0-t) at 24 h [6]: 1800 ng·h/mL | Cmax [7]: 738 ng/mL | AUC(0-t) at 24 h [8]: 1980 ng·h/mL | clearance [9]: 10 mL/min/kg | Ratio IC50 [2]: 1010 | pIC50 [3]: 6.30 | bioavailability [10]: 55% | half-life [11]: 1.5 h

Cc1cnc(-c2ccnc(C(C)(C)O)n2)cc1-n1c(C)cc(OC2CN(c3ncc(F)cc3F)C2)c(Cl)c1=O
pIC50 [1]: 6.55
